{
  "source": "patent US20040058852A1",
  "about": "“Use of gap-junction blockers in neurodegenerative disease” (priority 2002, published 2004)",
  "key": {"[1]": {"test_system": "secondary edema following focal hypoxic-ischemic insult", "conditions": "experimental animal models; cited from earlier work"}, "newborn infants": {"test_system": "newborn infants", "conditions": "newborn infants or heart surgery using deep hypothermic circulatory arrest; cited from earlier work"}, "[2]": {"test_system": "CA1 pyramidal neurons in organotypic hippocampal slice cultures", "assay_type": "cell-based, Sprague-Dawley rat", "procedure": "Organotypic hippocampal slice cultures were prepared from 9- to 12-day old Sprague-Dawley rat pups (Charles River, Wilmington, Del.) of both sexes (Stoppini et al., 1991). Rats were decapitated under deep ketamine anesthesia, the hippocampi rapidly dissected out and placed immediately into ice-cold dissection medium containing: 3.5 mM KCl, 0.5 mM NaH2PO4, 10 mM MgSO4, 5 mM NaHCO3, 118 mM n-methyl-D-glucosamina, 1.1 mM KH2PO4, 10 mM HEPES, 20 mM D-glucose, pH 7.35, gassed with 95% O2/5% CO2. Transverse slices of hippocampus plus entorhinal cortex were cut using a spring-loaded grid of 20 μm diameter wires spaced 400 μm apart. Slices were immediately transferred into dissection medium, separated and placed on semi-permeable membrane tissue culture inserts (Millipore Corporation, Bedford, Mass.) in a 6-well plate, each well containing 1 ml of culture medium (50% Minimum Essential Medium, 25% Hank's balanced salt solution, 25% heat-inactivated horse serum, 13 mM HEPES, 2.5 mg/ml glucose). Cultures were maintained at 35° C. in a humidified 5% CO2 incubator and medium was changed every 2-3 days.\nAfter 6-10 days in culture, hippocampal slice cultures were exposed to hypoxia-ischemia (HI) by transient oxygen and glucose deprivation. Slices were transferred into another six-well plate containing 1 ml of Ringermannitol glucose-free medium per well, containing 1.25 mM CaCl2, 0.9 mM MgSO4, 5.4 mM KCl, 0.44 mM KH2PO4, 137 mM NaCl, 4.2 mM NaHCO3, 0.35 mM NaH2PO4, 16.7 mM HEPES, and 27.5 mM mannitol, and placed in a hypoxic box continuously gassed with 95% N2/5% CO2 for 45 min. They were then returned to normal medium with carbon dioxide until measurement of neuronal death.\nCarbenoxolone (disodium salt) was purchased from Sigma (St. Louis, Mo.), propidium iodide and carboxyfluorescein diacetate from Molecular Probes (Eugene, Oreg.). Cleaved caspase-3 antibody was purchased from Cell Signaling (Beverly, Mass.).\nMedia containing 1 μM PI was applied for 10 min to slices and PI-labeled dead cells imaged using […] filters. IPLab (Signal Analytics Corp.) and NIH image analysis programs were used to quantitate total fluorescence intensity for equal regions of interest within the CA1 pyramidal cell body layer (stratum pyramidale)."}, "[3]": {"test_system": "synaptic transmission in CA1 stratum radiatum of hippocampal slice cultures", "test": "Schaffer collateral-evoked excitatory postsynaptic potentials in slice cultures 24 hr post-HI", "assay_type": "cell-based, Sprague-Dawley rat", "conditions": "75 μM, 45 min HI", "procedure": "Organotypic hippocampal slice cultures were prepared from 9- to 12-day old Sprague-Dawley rat pups (Charles River, Wilmington, Del.) of both sexes (Stoppini et al., 1991). Rats were decapitated under deep ketamine anesthesia, the hippocampi rapidly dissected out and placed immediately into ice-cold dissection medium containing: 3.5 mM KCl, 0.5 mM NaH2PO4, 10 mM MgSO4, 5 mM NaHCO3, 118 mM n-methyl-D-glucosamina, 1.1 mM KH2PO4, 10 mM HEPES, 20 mM D-glucose, pH 7.35, gassed with 95% O2/5% CO2. Transverse slices of hippocampus plus entorhinal cortex were cut using a spring-loaded grid of 20 μm diameter wires spaced 400 μm apart. […]\nSlice cultures were placed in an interface recording chamber between artificial cerebrospinal fluid (ACSF; perfusion rate 3 ml/min) and a humidified atmosphere of 95% O2/5% CO2. […] Extracellular excitatory postsynaptic potentials (EPSPs) were recorded (2 M NaCl-filled electrodes) in stratum radiatum and elicited by bipolar Schaffer collateral stimulation (intensities 20-200 μA), recorded using an Axopatch 200A amplifier in current-clamp mode."}, "[4]": {"test_system": "gap junction coupling in hippocampal slice cultures", "test": "Fluorescence recovery after photobleaching (FRAP) in CA1 fields of hippocampal slice cultures", "assay_type": "cell-based, Sprague-Dawley rat", "parameters": "dose or concentration left out as unconfirmed", "procedure": "Fluorescence recovery in CA1 fields of hippocampal slice cultures was evaluated as in Wade et al., 1986. Hippocampal slice cultures were loaded by 45 min application of carboxyfluorescein diacetate (30 μM). CA1 fields of view were photobleached for 2 min using the 488 nm laser line of a confocal microscope (Nikon RCM 8000) and images acquired at low power at 1 min intervals thereafter. Quantitative image analysis was performed using Polygon-Star software (Nikon)."}, "[5]": {"test_system": "rat pups subjected to intrauterine hypoxic-ischemia", "test": "Intrauterine hypoxic-ischemia (transient global anoxia during C-section delivery): survival, growth, histopathology", "assay_type": "in vivo", "conditions": "for survived reperfusion / mortality: 75 mg/Kg", "procedure": "Sprague Dawley fetuses were subjected to transient global anoxia during C-section delivery (Bjelke et al., 1991; Brake et al., 1997). Pregnant rats at term (21 days gestation) were decapitated, the abdomen incised, and the uterus was quickly isolated from its blood supply and surrounding fat tissue and connective tissue. Acute anoxia was induced by immersing the intact uterus containing the fetuses into 37° C. saline for 12.5-15 min. […] Blood gases and pH Samples were analyzed for blood gases and pH on a blood gas monitor (RapidLab 855, Bayer,UK).\nAnimals were deeply anesthetized with ketalar and perfused via a transcardiac site after which brains were removed, rinsed with saline and fixed in formaldehyde buffered to pH 7.35. Brains were cut into sagittal sections, sliced in 2 mm cross-sections (Braintree Scientific Inc, Mass.), dehydrated with a tissue processor (TP1050, Leica Instruments, Germany), embedded in paraffin, sectioned with a Leica freezing microtome, and stained with haematoxylon-eosin.\nGroups were compared by ANOVA or Student's t-test, as appropriate, with group size pre-selected based on P<0.05 significance criterion."}, "caspase-3": {"test_system": "caspase-3", "test": "Western blot of activated caspase-3 in whole brain 24 hr after intrauterine HI", "assay_type": "in vivo, rat", "conditions": "for HI-induced increase of activated caspase-3 in whole brain: 75 mg/kg i.p. immediately after HI, 24 hr", "procedure": "Protein was extracted from whole-brain 24 hr following HI and concentration determined with a BCA Protein Assay Kit (Pierce, Rockford, Ill.). Twenty-five μg protein/sample was applied per lane and separated by electrophoresis in 10% or 10-20% SDS-polyacrylamide gels (BioRad, Hercules, Calif.) and transferred to nitrocellulose membranes (Schleicher and Schuell, Keene, N.H.). Membranes were blotted […] with cleaved caspase-3 ([…]) antibody (1:700) overnight at 4° C., and then incubated in horseradish peroxidase-conjugated anti-rabbit IgG 1:1500. […] As an internal control, glyceraldehyde-3-phosphate dehydrogenase (GAPDH) was blotted with horseradish peroxidase-conjugated goat antimouse IgG at a concentration of 1:4000. Densitometriy of chemiluminescent bands was quantified using Scion Image densitometer software (NIH), and band densities normalized to GAPDH density in the same gel."}, "[6]": {"test_system": "neonatal rats with seizures following intrauterine HI insults", "test": "Behavioral and electrographic (EEG) seizures after intrauterine hypoxic-ischemia", "assay_type": "in vivo, rat", "parameters": "ischemic pups that died: dose or concentration left out as unconfirmed", "conditions": "for behavioral seizures following HI insults: i.p. at the onset of motor seizures; for electrographic seizures (EEG epileptiform activity): i.p., EEG 40 min after administration, one pup", "source_text": "Rat pups were delivered by C-section. One group was subjected to intra-uterine hypoxic-ischemia, the control group was also delivered by caesarian-section but not subjected to a period of hypoxic-ischemia.\nSurviving animals in all groups were examined neuropathologically at 21 days following delivery (P21)."}, "[7]": {"conditions": "intraperitoneal and subcutaneous injections; cited from earlier work"}, "[8]": {"test_system": "brain damage in immature fetuses and newborn infants", "conditions": "randomized double-blind trials; cited from earlier work"}, "infarcts after stroke": {"test_system": "infarcts after stroke", "conditions": "applied before the induction of stroke; cited from earlier work"}, "[9]": {"conditions": "i.p. to newborn rats at least 15 min after HI"}},
  "note": "“Also recorded” adds a separate entry of the source.",
  "data": [
    {"smiles": "Oc1ncnc2[nH]ncc12", "note": "[Allopurinol]", "values": [
      {"measurement": "severity of secondary edema", "setting": "[1]", "result": "reduced"},
      {"measurement": "outcome in clinical trials", "setting": "newborn infants", "result": "has not been successful"}
    ]},
    {"smiles": "CC1(C)[C@@H](OC(=O)CCC(=O)O)CC[C@]2(C)[C@H]3C(=O)C=C4[C@@H]5C[C@@](C)(C(=O)O)CC[C@]5(C)CC[C@@]4(C)[C@]3(C)CC[C@@H]12", "note": "[carbenoxolone, Carbenoxolone]", "values": [
      {"measurement": "viability or morphology of control organotypic slice cultures", "setting": "[2]", "result": "did not detectably alter"},
      {"measurement": "neuroprotection when applied in vitro", "setting": "[2]; 75 μM", "result": "marked neuroprotection"},
      {"measurement": "delayed death of CA1 pyramidal neurons assessed by PI staining intensity", "setting": "[2]; 75 μM added 30 min prior to, during and 60 min after a 45 min HI insult, 24 hr following HI", "result": "markedly reduced"},
      {"measurement": "PI fluorescence 24 hr post-HI in hippocampal slice culture", "setting": "[2]; 75 μM, 60 min after the end of the HI episode (FIG. 2c)", "result": "reduced PI fluorescence"},
      {"measurement": "protection against loss of synaptic transmission in CA1 stratum radiatum (EPSP)", "setting": "[3]", "result": "very effective"},
      {"measurement": "gap junction coupling in slice cultures", "setting": "[4]", "result": "effective at reducing gap junction coupling"},
      {"measurement": "survived reperfusion", "setting": "[5]; 4 hrs", "result": "76.5±9", "unit": "%"},
      {"measurement": "mortality", "setting": "[5]; 4 hrs of reoxygenation/recirculation after perinatal HI", "result": 23.5, "unit": "%"},
      {"measurement": "survived reperfusion", "setting": "[5]; 24 hrs", "result": "73±9.5", "unit": "%"},
      {"measurement": "mortality", "setting": "[5]; 24 hrs after perinatal HI", "result": 27, "unit": "%"},
      {"measurement": "survived reperfusion", "setting": "[5]; 48 hrs", "result": "70±12.5", "unit": "%"},
      {"measurement": "mortality", "setting": "[5]; 48 hrs after perinatal HI", "result": 30, "unit": "%"},
      {"measurement": "cerebellar damage", "setting": "[5]; 75 mg/kg i.p. after intrauterine HI", "result": "preventing cerebellar damage"},
      {"measurement": "extent of histopathological damage in the hippocampus and neocortex", "setting": "[5]; 75 mg/kg i.p. after intrauterine HI, n=5", "result": "dramatically reduced"},
      {"measurement": "long-term development assessed by size", "setting": "[5]; 75 mg/kg immediately after intrauterine HI, compared to HI alone (FIG. 3d)", "result": "improves"},
      {"measurement": "survival rate", "setting": "[5]; 21 days post-HI", "result": "70±12", "unit": "%"},
      {"measurement": "crossing of the blood-brain barrier", "setting": "[5]; [9]", "result": "cross the blood-brain barrier in sufficient time and concentration"},
      {"measurement": "long-term damage induced by HI", "setting": "[5]; [9]", "result": "markedly reduce"},
      {"measurement": "body weight", "setting": "[5]; postnatal day 21, HI rats", "result": "29.2 ± 3", "unit": "g"},
      {"measurement": "HI-induced increase of activated caspase-3 in whole brain", "setting": "caspase-3", "result": "largely prevented"},
      {"measurement": "HI-induced increase of activated caspase-3 in whole brain", "setting": "caspase-3; listed as Carbenoxolone", "result": "reduced the activation"},
      {"measurement": "activation of caspase-3, reduced to", "setting": "caspase-3; 75 mg/kg i.p. immediately after perinatal HI, 24 hr post-HI, relative to HI alone", "result": "43±15", "unit": "%"},
      {"measurement": "caspase-3 band densities (normalized to GAPDH)", "setting": "caspase-3; HI+Carb, 75 mg/kg i.p., 24 hr post-HI", "result": "302±115"},
      {"measurement": "behavioral seizures following HI insults", "setting": "[6]", "result": "absence of seizures; also recorded: abolishes"},
      {"measurement": "behavioral seizures following HI insults", "setting": "[6]; listed as Carbenoxolone", "result": "stopped"},
      {"measurement": "electrographic seizures (EEG epileptiform activity)", "setting": "[6]", "result": "loss of electrographic epileptiform activity; also recorded: abolishes"},
      {"measurement": "electrographic seizures (EEG epileptiform activity)", "setting": "[6]; listed as Carbenoxolone", "result": "stopped"},
      {"measurement": "ischemic pups that died", "setting": "[6]; treated with carbenoxolone", "result": "One of 12"},
      {"measurement": "crossing of normoxic foeto-placental and adult blood-brain barriers", "setting": "[7]", "result": "has been shown to cross"}
    ]},
    {"smiles": "O=S(=O)([O-])[O-].[Mg+2]", "note": "[magnesium sulfate]", "values": [
      {"measurement": "protective effect against brain damage", "setting": "[8]", "result": "did not provide a protective effect"}
    ]},
    {"smiles": "CCCCCCCCO", "note": "[octanol]", "values": [
      {"measurement": "infarct size", "setting": "infarcts after stroke", "result": "reduced infarct size; also recorded: reduce the size of infarcts"}
    ]}
  ]
}
